target: T1, human TLR8 (Homo sapiens, UniProt Q9NR97); test: HEK293-Blue-hTLR-8 cells assay (SEAP reporter, R848 stimulation); format: cell-based; details: HEK293-Blue-hTLR8 cells, R848 ligand, 20 hrs incubation
T1 sequence (Q9NR97 27-1041): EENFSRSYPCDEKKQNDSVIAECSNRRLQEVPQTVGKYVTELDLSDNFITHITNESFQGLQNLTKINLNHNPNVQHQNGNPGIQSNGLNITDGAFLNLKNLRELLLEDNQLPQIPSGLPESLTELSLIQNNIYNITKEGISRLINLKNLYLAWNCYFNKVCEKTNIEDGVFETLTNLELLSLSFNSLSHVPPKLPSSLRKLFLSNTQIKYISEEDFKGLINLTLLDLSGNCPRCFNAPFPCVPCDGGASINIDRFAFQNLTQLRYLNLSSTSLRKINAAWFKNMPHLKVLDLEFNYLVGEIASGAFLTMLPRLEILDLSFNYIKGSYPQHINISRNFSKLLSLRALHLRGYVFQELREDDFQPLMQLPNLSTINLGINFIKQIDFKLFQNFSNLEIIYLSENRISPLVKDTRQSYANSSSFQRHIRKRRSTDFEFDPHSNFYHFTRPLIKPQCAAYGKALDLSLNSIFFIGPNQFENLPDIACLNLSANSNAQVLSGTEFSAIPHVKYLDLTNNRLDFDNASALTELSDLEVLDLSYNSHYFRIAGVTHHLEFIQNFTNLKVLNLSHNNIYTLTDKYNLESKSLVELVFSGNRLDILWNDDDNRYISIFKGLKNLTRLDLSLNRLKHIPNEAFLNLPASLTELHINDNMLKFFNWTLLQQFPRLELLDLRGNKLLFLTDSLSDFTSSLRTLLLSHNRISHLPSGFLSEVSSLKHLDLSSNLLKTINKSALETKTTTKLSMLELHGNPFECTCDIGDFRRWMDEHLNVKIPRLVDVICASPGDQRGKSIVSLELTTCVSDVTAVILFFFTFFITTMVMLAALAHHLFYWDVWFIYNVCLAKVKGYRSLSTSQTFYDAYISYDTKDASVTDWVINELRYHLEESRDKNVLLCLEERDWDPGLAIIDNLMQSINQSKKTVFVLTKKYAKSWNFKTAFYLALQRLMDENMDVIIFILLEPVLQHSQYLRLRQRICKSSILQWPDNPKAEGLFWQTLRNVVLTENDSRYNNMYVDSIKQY
Text: A stable HEK293-Blue-hTLR-8 cell line was purchased from InvivoGen (Cat. #: hkb-htlr8, San Diego, Calif., USA). These cells were originally designed for studying the stimulation of human TLR8 by monitoring the activation of NF-κB. A SEAP (secreted embryonic alkaline phosphatase) reporter gene was placed under the control of the IFN-β minimal promoter fused to five NF-κB and AP-1-binding sites. The SEAP was induced by activating NF-κB and AP-1 via stimulating HEK-Blue hTLR8 cells with TLR8 ligands. Therefore the reporter expression was declined by TLR8 antagonist under the stimulation of a ligand, such as R848, for incubation of 20 hrs. The cell culture supernatant SEAP reporter activity was determined using QUANTI-Blue™ kit (Cat. #: rep-qb1, Invivogen, San Diego, Ca, USA) at a wavelength of 640 nm, a detection medium that turns purple or blue in the presence of alkaline phosphatase.
HEK293-Blue-hTLR8 cells were incubated at a density of 250,000˜450,000 cells/mL in a volume of 170 μL in a 96-well plate in Dulbecco's Modified Eagle's medium (DMEM) containing 4.5 g/L glucose, 50 U/mL penicillin, […], […], 2 mM L-glutamine, 10% (v/v) heat-inactivated fetal bovine serum with addition of 20 μL test compound in a serial dilution in the presence of final DMSO at 1% and 10 μL of 60 uM R848 in above DMEM, perform incubation under 37° C. in a CO2 incubator for 20 hrs. Then 20 μL of the supernatant from each well was incubated with 180 μL Quanti-blue substrate solution at 37° C. for 2 hrs and the absorbance was read at 620˜655 nm using a spectrophotometer. The signalling pathway that TLR8 activation leads to downstream NF-κB activation has been widely accepted, and therefore similar reporter assay was modified for evaluating TLR8 antagonist.

Structure (SMILES)	IC50
C[C@@H]1CN(c2ccc(C#N)n3nccc23)C[C@H](CN2CCC3(CCCNC3)CC2)O1 [Example 27, 4-[(2S,6R)-2-(2,9-diazaspiro[5.5]undecan-9-ylmethyl)-6-methyl-morpholin-4-yl]pyrazolo[1,5-a]pyridine-7-carbonitrile]	190 nM
CC1CN(C[C@H]2CN(c3ccc(C#N)n4nccc34)C[C@@H](C)O2)CCN1 (stereo partly drawn) [Example 28, 4-[(2R,6S)-2-methyl-6-[(3-methylpiperazin-1-yl)methyl]morpholin-4-yl]pyrazolo[1,5-a]pyridine-7-carbonitrile]	65 nM
C[C@@H]1CN(c2ccc(C#N)n3nccc23)C[C@H](CN2CCC(C)(N)CC2)O1 [Example 29, 4-[(2S,6R)-2-[(4-amino-4-methyl-1-piperidyl)methyl]-6-methyl-morpholin-4-yl]pyrazolo[1,5-a]pyridine-7-carbonitrile]	52 nM
C[C@@H]1CN(c2ccc(C#N)n3nccc23)C[C@H](CN2CC3CCC2CN3)O1 (stereo partly drawn) [Example 30, 4-[(2S,6R)-2-(2,5-diazabicyclo[2.2.2]octan-2-ylmethyl)-6-methyl-morpholin-4-yl]pyrazolo[1,5-a]pyridine-7-carbonitrile]	100 nM
C[C@@H]1CN(c2ccc(C#N)n3nccc23)C[C@H](CN2CC3CCC(C2)N3)O1 [Example 31, 4-[(2S,6R)-2-(3,8-diazabicyclo[3.2.1]octan-3-ylmethyl)-6-methyl-morpholin-4-yl]pyrazolo[1,5-a]pyridine-7-carbonitrile]	97 nM
C[C@@H]1CN(c2ccc(C#N)n3nccc23)C[C@H](CN2CCCC3(CCNCC3)C2)O1 [Example 32, 4-[(2S,6R)-2-(2,9-diazaspiro[5.5]undecan-2-ylmethyl)-6-methyl-morpholin-4-yl]pyrazolo[1,5-a]pyridine-7-carbonitrile]	91 nM
C[C@@H]1CN(c2ccc(C#N)n3nccc23)C[C@H](CN2CCCC3(CNC3)C2)O1 [Example 33, 4-[(2S,6R)-2-(2,6-diazaspiro[3.5]nonan-6-ylmethyl)-6-methyl-morpholin-4-yl]pyrazolo[1,5-a]pyridine-7-carbonitrile]	54 nM
C[C@@H]1CN(c2ccc(C#N)n3nccc23)C[C@H](CN2CCC(N)C(F)(F)C2)O1 (stereo partly drawn) [Example 34, 4-[(2S,6R)-2-[(4-amino-3,3-difluoro-1-piperidyl)methyl]-6-methyl-morpholin-4-yl]pyrazolo[1,5-a]pyridine-7-carbonitrile]	65 nM
C[C@@H]1CN(c2ccc(C#N)n3nccc23)C[C@H](CN2CC(N)C(F)(F)C2)O1 (stereo partly drawn) [Example 35, 4-[(2S,6R)-2-[(4-amino-3,3-difluoro-pyrrolidin-1-yl)methyl]-6-methyl-morpholin-4-yl]pyrazolo[1,5-a]pyridine-7-carbonitrile]	950 nM
C[C@@H]1CN(c2ccc(C#N)n3nccc23)C[C@H](CN2CC3CCC(C2)C3N)O1 (stereo partly drawn) [Example 36, 4-[(2S,6R)-2-[(8-amino-3-azabicyclo[3.2.1]octan-3-yl)methyl]-6-methyl-morpholin-4-yl]pyrazolo[1,5-a]pyridine-7-carbonitrile]	90 nM
C[C@@H]1CN(c2ccc(C#N)n3nccc23)C[C@H](CN2C3CCC2CC(N)C3)O1 (stereo partly drawn) [Example 37, 4-[(2S,6R)-2-[(3-amino-8-azabicyclo[3.2.1]octan-8-yl)methyl]-6-methyl-morpholin-4-yl]pyrazolo[1,5-a]pyridine-7-carbonitrile]	45 nM
C[C@@H]1CN(c2ccc(C#N)n3nccc23)C[C@H](CN2CCN[C@H](c3ccccc3)C2)O1 [Example 38, 4-[(2R,6S)-2-methyl-6-[[(3R)-3-phenylpiperazin-1-yl]methyl]morpholin-4-yl]pyrazolo[1,5-a]pyridine-7-carbonitrile]	37 nM
C[C@@H]1CN(c2ccc(C#N)n3nccc23)C[C@H](CN2CCC(N3CCNCC3)CC2)O1 [Example 39, 4-[(2R,6S)-2-methyl-6-[(4-piperazin-1-yl-1-piperidyl)methyl]morpholin-4-yl]pyrazolo[1,5-a]pyridine-7-carbonitrile]	180 nM
C[C@@H]1CN(c2ccc(C#N)n3nccc23)C[C@H](CN2CCNC3(CC3)C2)O1 [Example 40, 4-[(2S,6R)-2-(4,7-diazaspiro[2.5]octan-7-ylmethyl)-6-methyl-morpholin-4-yl]pyrazolo[1,5-a]pyridine-7-carbonitrile]	140 nM
C[C@@H]1CN(c2ccc(C#N)n3nccc23)C[C@H](CN2CCC3NCCC3C2)O1 (stereo partly drawn) [Example 41, 4-[(2S,6R)-2-(1,2,3,3a,4,6,7,7a-octahydropyrrolo[3,2-c]pyridin-5-ylmethyl)-6-methyl-morpholin-4-yl]pyrazolo[1,5-a]pyridine-7-carbonitrile]	29 nM
C[C@@H]1CN(c2ccc(C#N)n3nccc23)C[C@H](CN2C3CCC2CNC3)O1 [Example 43, 4-[(2S,6R)-2-(3,8-diazabicyclo[3.2.1]octan-8-ylmethyl)-6-methyl-morpholin-4-yl]pyrazolo[1,5-a]pyridine-7-carbonitrile]	31 nM

More lines, now with the values ahead:

IC50	Structure (SMILES)
65 nM	C[C@@H]1CN(c2ccc(C#N)n3nccc23)C[C@H](CN2CCC3(CCCCN3)C2)O1 (stereo partly drawn) [Example 42, 4-[(2S,6R)-2-(2,6-diazaspiro[4.5]decan-2-ylmethyl)-6-methyl-morpholin-4-yl]pyrazolo[1,5-a]pyridine-7-carbonitrile]
25 nM	C[C@@H]1CN(c2ccc(C#N)n3nccc23)C[C@H](CN2CCCC3(CCNC3)C2)O1 (stereo partly drawn) [Example 44, 4-[(2S,6R)-2-(2,7-diazaspiro[4.5]decan-7-ylmethyl)-6-methyl-morpholin-4-yl]pyrazolo[1,5-a]pyridine-7-carbonitrile]
230 nM	C[C@@H]1CN(c2ccc(C#N)n3nccc23)C[C@H](CN2CC3CCCNC3C2)O1 (stereo partly drawn) [Example 45, 4-[(2S,6R)-2-(1,2,3,4,4a,5,7,7a-octahydropyrrolo[3,4-b]pyridin-6-ylmethyl)-6-methyl-morpholin-4-yl]pyrazolo[1,5-a]pyridine-7-carbonitrile]
150 nM	C[C@@H]1CN(c2ccc(C#N)n3nccc23)C[C@H](CN2CC3(CCCNCC3)C2)O1 [Example 46, 4-[(2S,6R)-2-(2,8-diazaspiro[3.6]decan-2-ylmethyl)-6-methyl-morpholin-4-yl]pyrazolo[1,5-a]pyridine-7-carbonitrile]
31 nM	C[C@@H]1CN(c2ccc(C#N)n3nccc23)C[C@H](CN2CCC3(CCCCN3)CC2)O1 [Example 47, 4-[(2S,6R)-2-(1,9-diazaspiro[5.5]undecan-9-ylmethyl)-6-methyl-morpholin-4-yl]pyrazolo[1,5-a]pyridine-7-carbonitrile]
110 nM	C[C@@H]1CN(c2ccc(C#N)n3nccc23)C[C@H](CN2CCC3(CCN3)CC2)O1 [Example 48, 4-[(2S,6R)-2-(1,7-diazaspiro[3.5]nonan-7-ylmethyl)-6-methyl-morpholin-4-yl]pyrazolo[1,5-a]pyridine-7-carbonitrile]
150 nM	C[C@@H]1CN(c2ccc(C#N)n3nccc23)C[C@H](CN2CC3CCNCC3C2)O1 (stereo partly drawn) [Example 49, 4-[(2S,6R)-2-(1,3,3a,4,5,6,7,7a-octahydropyrrolo[3,4-c]pyridin-2-ylmethyl)-6-methyl-morpholin-4-yl]pyrazolo[1,5-a]pyridine-7-carbonitrile]
40 nM	CC1CC(N)CCN1C[C@H]1CN(c2ccc(C#N)n3nccc23)C[C@@H](C)O1 (stereo partly drawn) [Example 51, 4-[(2S,6R)-2-[(4-amino-2-methyl-1-piperidyl)methyl]-6-methyl-morpholin-4-yl]pyrazolo[1,5-a]pyridine-7-carbonitrile]
